Data as given in patent US9115143B2, “Substituted indole derivatives as gamma secretase modulators” (Janssen Pharmaceuticals, Inc., priority 2011, dated 2015).
pIC50: −log10 of the molar value.

Key:
[1] = tested on: Aβ42; assay: Screening for γ-secretase-modulating activity: Aβ42 in supernatant of SKNBE2 cells carrying hAPP 695 wild type (Alphalisa); format: cell-based, human; details: overnight incubation, Alphalisa on supernatant
Outline: (§1)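 Secreted Aβ42 (C-terminal/N-terminal antibody pair) and Aβtotal (N-terminal/mid-region pair) were quantified by AlphaLISA after overnight compound exposure of wild-type hAPP 695 SKNBE2 cells at 37 °C. Values expressed relative to compound-free maximum, with IC50 from nonlinear 4-parameter regression.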

[2] = tested on: Aβtotal; assay: Screening for γ-secretase-modulating activity: Aβtotal in supernatant of SKNBE2 cells carrying hAPP 695 wild type (Alphalisa); format: cell-based, human; details: overnight incubation, Alphalisa on supernatant
Outline: as §1

[3] = SKNBE2 human neuroblastoma cells carrying hAPP 695 wild type
[4] = Homo sapiens, SKNBE2, SKNBE2 human neuroblastoma cells carrying hAPP 695 wild type

Row | pIC50 [1, 3] | pIC50 [2, 3] | melting point [°C] | pIC50 [1, 4] | pIC50 [2, 4] | SMILES
1 | 6.17 | < 5.00 | 277.1 | – | – | COc1c(C#N)ccc2[nH]c(-c3cn4c(n3)C(c3cc(F)ccc3C)OCC4)cc12 (stereo not drawn) [Compound 159, 2-[8-(5-fluoro-2-methylphenyl)-5,6-dihydro-8H-imidazo[2,1-c][1,4]oxazin-2-yl]-4-methoxy-1H-indole-5-carbonitrile]
2 | – | – | 191.8 | 7.59 | < 5.00 | Cc1cc(-c2ccc3[nH]c(-c4cn5c(n4)C(c4ccc(F)cc4C)OCC5)cc3c2)ccn1 (stereo not drawn) [Compound 103, 8-(4-fluoro-2-methylphenyl)-5,6-dihydro-2-[5-(2-methyl-4-pyridinyl)-1H-indol-2-yl]-8H-imidazo[2,1-c][1,4]oxazine]
3 | 5.26 | < 5.00 | 253.5 | – | – | Cc1cc(F)ccc1C1OCCn2nc(-c3cc4cc(C#N)ccc4[nH]3)nc21 (single isomer, unassigned) [Compound 98, 2-[8-(4-fluoro-2-methylphenyl)-5,6-dihydro-8H-[1,2,4]triazolo[5,1-c][1,4]oxazin-2-yl]-1H-indole-5-carbonitrile]
4 | – | – | 297.5 | 7.32 | < 5.00 | Cc1cn(-c2ccc3[nH]c(-c4nc5n(n4)CCOC5c4ccc(F)cc4C(C)C)cc3c2)cn1 (stereo not drawn) [Compound 100, 8-[4-fluoro-2-(1-methylethyl)phenyl]-5,6-dihydro-2-[5-(4-methyl-1H-imidazol-1-yl)-1H-indol-2-yl]-8H-[1,2,4]triazolo[5,1-c][1,4]oxazine]
5 | – | – | 285.1 | 7.48 | < 5.00 | Cc1cn(-c2ccc3[nH]c(-c4nc5n(n4)CCOC5c4cc(F)c(F)c(C)c4C)cc3c2)cn1 (stereo not drawn) [Compound 116, 8-(4,5-difluoro-2,3-dimethylphenyl)-5,6-dihydro-2-[5-(4-methyl-1H-imidazol-1-yl)-1H-indol-2-yl]-8H-[1,2,4]triazolo[5,1-c][1,4]oxazine]
6 | – | – | 261.3 | 7.21 | < 5.00 | Cc1cn(-c2ccc3[nH]c(-c4nc5n(n4)CCOC5c4cccc(F)c4C)cc3c2)cn1 (stereo not drawn) [Compound 36, 8-(3-fluoro-2-methylphenyl)-5,6-dihydro-2-[5-(4-methyl-1H-imidazol-1-yl)-1H-indol-2-yl]-8H-[1,2,4]triazolo[5,1-c][1,4]oxazine]
7 | 6.66 | – | 255 | – | < 5.00 | Cc1cc(F)ccc1C1OCCn2nc(-c3cc4cc(C#N)ccc4[nH]3)nc21 (single isomer, unassigned) [Compound 97, 2-[8-(4-fluoro-2-methylphenyl)-5,6-dihydro-8H-[1,2,4]triazolo[5,1-c][1,4]oxazin-2-yl]-1H-indole-5-carbonitrile]
8 | 5.99 | < 5.00 | 244.4 | – | – | COc1c(C#N)ccc2[nH]c(-c3cn4c(n3)C(c3ccc(F)cc3C)OCC4)cc12 (stereo not drawn) [Compound 48, 2-[8-(4-fluoro-2-methylphenyl)-5,6-dihydro-8H-imidazo[2,1-c][1,4]oxazin-2-yl]-4-methoxy-1H-indole-5-carbonitrile]
9 | – | – | 225.2 | 6.53 | < 5.00 | Cc1c(F)cccc1C1OCCn2nc(-c3cc4cc(C#N)ccc4[nH]3)nc21 (stereo not drawn) [Compound 1, 2-[8-(3-fluoro-2-methylphenyl)-5,6-dihydro-8H-[1,2,4]triazolo[5,1-c][1,4]oxazin-2-yl]-1H-indole-5-carbonitrile]
10 | – | – | 267.2 | 7.31 | < 5.00 | Cc1cc(-c2ccc3[nH]c(-c4nc5n(n4)CCCC5c4ccc(F)cc4C)cc3n2)ccn1 (stereo not drawn) [Compound 33, 8-(4-fluoro-2-methylphenyl)-5,6,7,8-tetrahydro-2-[5-(2-methyl-4-pyridinyl)-1H-pyrrolo[3,2-b]pyridin-2-yl]-[1,2,4]triazolo[1,5-a]pyridine]

More lines, now with the values behind:

Row | SMILES | pIC50 [1, 3] | pIC50 [2, 3] | melting point [°C] | pIC50 [1, 4] | pIC50 [2, 4]
11 | COc1c(C#N)ccc2[nH]c(-c3nc4n(n3)CCOC4c3c(C)cccc3F)cc12 (stereo not drawn) [Compound 141, 2-[8-(2-fluoro-6-methylphenyl)-5,6-dihydro-8H-[1,2,4]triazolo[5,1-c][1,4]oxazin-2-yl]-4-methoxy-1H-indole-5-carbonitrile] | 7.55 | < 5.00 | 244.4 | – | –
12 | Cc1ccccc1C1CCCn2nc(-c3cc4nc(C#N)ccc4[nH]3)nc21 (stereo not drawn) [Compound 25, 2-[5,6,7,8-tetrahydro-8-(2-methylphenyl)[1,2,4]triazolo[1,5-a]pyridin-2-yl]-1H-pyrrolo[3,2-b]pyridine-5-carbonitrile] | – | – | 264.9 | 6.40 | < 5.00
13 | COc1ccccc1C1CCCn2nc(-c3cc4cc(C#N)ccc4[nH]3)nc21 (stereo not drawn) [Compound 19, 2-[5,6,7,8-tetrahydro-8-(2-methoxyphenyl)[1,2,4]triazolo[1,5-a]pyridin-2-yl]-1H-indole-5-carbonitrile] | – | – | 139.6 | 6.18 | < 5.00
14 | COc1c(C#N)ccc2[nH]c(-c3nc4n(n3)CCCC4(O)c3ccc(F)cc3C)cc12 (stereo not drawn) [Compound 60, 2-[8-(4-fluoro-2-methylphenyl)-5,6,7,8-tetrahydro-8-hydroxy[1,2,4]triazolo[1,5-a]pyridin-2-yl]-4-methoxy-1H-indole-5-carbonitrile] | – | – | 287.1 | 6.86 | < 5.00
15 | N#Cc1ccc2cc(-c3nc4n(n3)CCCC4c3ccccc3C(F)(F)F)[nH]c2c1 (stereo not drawn) [Compound 61, 2-[5,6,7,8-tetrahydro-8-[2-(trifluoromethyl)phenyl][1,2,4]triazolo[1,5-a]pyridin-2-yl]-1H-indole-6-carbonitrile] | – | – | 175.7 | 5.40 | < 5.00
16 | COc1c(C#N)ccc2[nH]c(-c3nc4n(n3)CCOC4c3ccc(F)c(Cl)c3)cc12 (stereo not drawn) [Compound 156, 2-[8-(3-chloro-4-fluorophenyl)-5,6-dihydro-8H-[1,2,4]triazolo[5,1-c][1,4]oxazin-2-yl]-4-methoxy-1H-indole-5-carbonitrile] | 7.07 | < 5.00 | 267.3 | – | –
17 | COc1ccccc1C1CCCn2cc(-c3cc4cc(C#N)ccc4[nH]3)nc21 (stereo not drawn) [Compound 67, 2-[5,6,7,8-tetrahydro-8-(2-methoxyphenyl)imidazo[1,2-a]pyridin-2-yl]-1H-indole-5-carbonitrile] | – | – | 251 | 6.30 | < 5.00
18 | COc1c(C#N)ccc2[nH]c(-c3nc4n(n3)CCOC4c3c(C)cccc3F)cc12 (stereo not drawn) [Compound 142, 2-[8-(2-fluoro-6-methylphenyl)-5,6-dihydro-8H-[1,2,4]triazolo[5,1-c][1,4]oxazin-2-yl]-4-methoxy-1H-indole-5-carbonitrile] | 5.55 | < 5.00 | 244.8 | – | –
19 | N#Cc1ccc2[nH]c(-c3nc4n(n3)CCCC4c3cc(C(F)(F)F)ccc3F)cc2c1 (stereo not drawn) [Compound 21, 2-[8-[2-fluoro-5-(trifluoromethyl)phenyl]-5,6,7,8-tetrahydro[1,2,4]triazolo[1,5-a]pyridin-2-yl]-1H-indole-5-carbonitrile] | – | – | 184.3 | 6.45 | < 5.00
20 | COc1c(C#N)ccc2[nH]c(-c3cn4c(n3)C(c3ccccc3C3CC3)OCC4)cc12 (stereo not drawn) [Compound 169, 2-[8-(2-cyclopropylphenyl)-5,6-dihydro-8H-imidazo[2,1-c][1,4]oxazin-2-yl]-4-methoxy-1H-indole-5-carbonitrile] | 6.12 | < 5.00 | 270.8 | – | –
21 | COc1c(C#N)ccc2[nH]c(-c3cn4c(n3)C(c3ccccc3C3CC3)OCC4)cc12 (stereo not drawn) [Compound 170, 2-[8-(2-cyclopropylphenyl)-5,6-dihydro-8H-imidazo[2,1-c][1,4]oxazin-2-yl]-4-methoxy-1H-indole-5-carbonitrile] | 7.96 | – | 269.8 | – | < 5.00
22 | COc1ccc2[nH]c(-c3nc4n(n3)CCCC4c3ccccc3C(F)(F)F)cc2c1 (stereo not drawn) [Compound 29, 5,6,7,8-tetrahydro-2-(5-methoxy-1H-indol-2-yl)-8-[2-(trifluoromethyl)phenyl]-[1,2,4]triazolo[1,5-a]pyridine] | – | – | 183 | 5.32 | < 4.82
23 | N#Cc1ccc2[nH]c(-c3nc4n(n3)CCCC4c3ccccc3C(F)(F)F)cc2n1 (stereo not drawn) [Compound 26, 2-[5,6,7,8-tetrahydro-8-[2-(trifluoromethyl)phenyl][1,2,4]triazolo[1,5-a]pyridin-2-yl]-1H-pyrrolo[3,2-b]pyridine-5-carbonitrile] | – | – | 272.3 | 6.48 | < 5.00
24 | Cc1cc(F)ccc1C1CCCn2nc(-c3cc4nc(-c5cnn(C)c5)ccc4[nH]3)nc21 (stereo not drawn) [Compound 32, 8-(4-fluoro-2-methylphenyl)-5,6,7,8-tetrahydro-2-[5-(1-methyl-1H-pyrazol-4-yl)-1H-pyrrolo[3,2-b]pyridin-2-yl]-[1,2,4]triazolo[1,5-a]pyridine] | 6.83 | – | 281.7 | – | < 5.00
25 | N#Cc1ccc2[nH]c(-c3nc4n(n3)CCCC4c3ccccc3Cl)cc2c1 (stereo not drawn) [Compound 62, 2-[8-(2-chlorophenyl)-5,6,7,8-tetrahydro[1,2,4]triazolo[1,5-a]pyridin-2-yl]-1H-indole-5-carbonitrile] | – | – | 208.6 | 6.61 | < 5.00
26 | N#Cc1ccc2[nH]c(-c3nc4n(n3)CCCC4c3ccc(F)cc3C(F)(F)F)cc2c1 (stereo not drawn) [Compound 22, 2-[8-[4-fluoro-2-(trifluoromethyl)phenyl]-5,6,7,8-tetrahydro[1,2,4]triazolo[1,5-a]pyridin-2-yl]-1H-indole-5-carbonitrile] | – | – | 265 | 6.86 | < 5.00
